In the NIST ThermoML archive (doi:10.1021/acs.jced.8b00302):
Numbers after ± are expanded uncertainties.

Experiment: wn = mass fraction of the nth substance listed
Conditions: 298.2 K, 100 kPa, Liquid, Gravity bottle method

SMILES: O=S(=O)([O-])[O-].[Cs+].[Cs+] [cesium sulfate] + O
- mass density (w1 = 0.3365): 1363.1 ± 10 kg/m3
- mass density (w1 = 0.6463): 2016.2 ± 10 kg/m3

SMILES: O=S(=O)([O-])[O-].[Mg+2] [magnesium sulfate] + O
- mass density (w1 = 0.2743): 1293 ± 10 kg/m3

SMILES: O=S(=O)([O-])[O-].[Rb+].[Rb+] [rubidium sulfate] + O
- mass density (w1 = 0.6463): 2016.2 ± 10 kg/m3
